{"source": "patent US10829718B2", "about": "“Detergent composition comprising a carbinol functional trisiloxane” (Dow Silicones Corporation, priority 2016, dated 2020)", "type": "physicochemical", "from_the_text": "The directive essentially states that if a material is classified as a surfactant in must pass certain biodegradation protocols. A surfactant was generally defined as a material capable of: 1) reducing the surface tension of water to ≤45 dynes/cm (or ≤45 mN/m) at a concentration of 0.5 wt % of the material in water; 2) forming spreading or adsorption monolayers at an air/water interface; 3) forming emulsions, microemulsions and/or micelles; and 4) adsorption at a water/solid interface. Surface tension of an aqueous solution, fluid, or mixture can readily be determined by various methods understood in the art. Generally, for stable solutions or mixtures, an equilibrium method such as the Wilhelmy plate method or Du Noüy ring method can be utilized. Alternately, for more dynamic systems, a pendant drop method can be utilized. This technique results in a fresh surface for each measurement. This method is also useful to reduce the potential for insoluble hydrophobic impurities or oils which could impact the surface tension measurement resulting in artificially low surface tension values. An example of such a surfactant assessment/classification is illustrated in the flow diagram of FIG. 3. Referring to the protocol illustrated in FIG. 3, the initial assessment is whether or not a 0.5 wt % mixture of the material being tested is soluble in water. Mixtures were prepared by adding 0.5% of the material to distilled water at 20° C. and mixing with a magnetic stir bar for one hour. If the material is soluble in water, as indicated, for example, by the formation of a clear or slightly hazy mixture, then surface tension (σ) is determined. If σ is >45 mN/m, the material is not classified as a surfactant. If σ is ≤45 mN/m, and micelles are not present, the material is not classified as a surfactant. Conversely, if micelles are present, the material is classified as a surfactant. If the material is not soluble in water, and no emulsion is present (e.g. solid particles or gels are present instead), then the material is not classified as a surfactant. If an emulsion is present (e.g. droplets are present) and the emulsion in stable, then σ is determined. If σ is >45 mN/m, the material is not classified as a surfactant. Conversely, if σ is ≤45 mN/m, the material is classified as a surfactant. If the material is not soluble in water, and an emulsion is present (e.g. droplets are present) and the emulsion is not stable, the emulsion is then centrifuged. The (clear) main phase (or supernatant) of the emulsion is further studied and the a is determined. If σ is >45 mN/m, the material is not classified as a surfactant. Conversely, if σ is ≤45 mN/m, and micelles are not present, the material is not classified as a surfactant. […]", "data": [{"smiles": "CN(CC(O)COCCC[Si](C)(O[Si](C)(C)C)O[Si](C)(C)C)C[C@H](O)[C@@H](O)[C@H](O)[C@H](O)CO", "note": "(stereo partly shown) [Example 11, BisH-AGE-NMG]", "values": [{"measurement": "solubility in water", "value": "generally insoluble"}, {"measurement": "stability of the mixture in water", "value": "stable"}, {"measurement": "appearance / behaviour of the mixture in water", "setting": "0.5 wt % mixture in water", "value": "formed a hazy mixture"}, {"measurement": "classification as surfactant / non-surfactant according to the protocol/flow diagram", "setting": "0.5 wt % of the material in distilled water at 20° C., mixed one hour", "value": "surfactant"}]}]}
